Measurements from article PMC11859264, “Discovery of a Novel Multitarget Analgesic Through an In Vivo-Guided Approach” (Pharmaceuticals, 2025).

Legend:
Adrenergic α2A = target: T1, Adrenergic α2A (Homo sapiens, UniProt P08913); test: Radioligand binding, [3H] Rauwolscine, Eurofins
T1 sequence (P08913 1-465): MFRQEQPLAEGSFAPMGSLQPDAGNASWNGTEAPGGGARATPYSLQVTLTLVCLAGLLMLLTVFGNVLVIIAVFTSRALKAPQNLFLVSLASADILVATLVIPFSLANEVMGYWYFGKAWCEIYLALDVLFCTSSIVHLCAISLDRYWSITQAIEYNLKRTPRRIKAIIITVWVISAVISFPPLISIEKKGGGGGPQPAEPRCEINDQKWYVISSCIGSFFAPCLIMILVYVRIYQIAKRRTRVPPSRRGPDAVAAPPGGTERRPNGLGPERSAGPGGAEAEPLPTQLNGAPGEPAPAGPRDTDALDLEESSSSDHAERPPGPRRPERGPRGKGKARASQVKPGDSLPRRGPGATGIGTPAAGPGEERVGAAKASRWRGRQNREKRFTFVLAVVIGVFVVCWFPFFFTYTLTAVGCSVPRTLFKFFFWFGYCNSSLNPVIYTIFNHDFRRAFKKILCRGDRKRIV

[1] = test system: panel of 47 drug target molecules; test: Screening against a panel of pain-related drug targets at 10 μM; type: binding
Experimental: To elucidate the mechanism of action of compound 29 in producing analgesic effects, its inhibitory effects were systematically evaluated through a screening process. The compound was tested at a concentration of 10 μM against a diverse panel of 47 drug target molecules that are closely associated with pain modulation pathways.
The screening of pain-related receptors for the mechanism of action study of compound 29 was conducted by outsourcing the experiment to Eurofins (https://www.eurofins.com, accessed on 30 July 2024). Methods employed in this study have been adapted from the scientific literature to maximize reliability and reproducibility. Reference standards were run as an integral part of each assay to ensure the validity of the results obtained. […] Where presented, IC50 values were determined by a non-linear, least squares regression analysis using MathIQTM (ID Business Solutions Ltd., Woking, Surrey, UK). Where inhibition constants (Ki) are presented, the Ki values were calculated using the equation of Cheng and Prusoff using the observed IC50 of the tested compound, the concentration of radioligand (*) employed in the assay, and the historical values for the KD of the ligand (obtained experimentally at Eurofins Panlabs, Inc.). Where presented, the Hill coefficient (nH), defining the slope of the competitive binding curve, was calculated using MathIQTM.

hERG = hERG (Homo sapiens, UniProt Q12809); test: biochemical
Chain of hERG (Q12809 whole entry): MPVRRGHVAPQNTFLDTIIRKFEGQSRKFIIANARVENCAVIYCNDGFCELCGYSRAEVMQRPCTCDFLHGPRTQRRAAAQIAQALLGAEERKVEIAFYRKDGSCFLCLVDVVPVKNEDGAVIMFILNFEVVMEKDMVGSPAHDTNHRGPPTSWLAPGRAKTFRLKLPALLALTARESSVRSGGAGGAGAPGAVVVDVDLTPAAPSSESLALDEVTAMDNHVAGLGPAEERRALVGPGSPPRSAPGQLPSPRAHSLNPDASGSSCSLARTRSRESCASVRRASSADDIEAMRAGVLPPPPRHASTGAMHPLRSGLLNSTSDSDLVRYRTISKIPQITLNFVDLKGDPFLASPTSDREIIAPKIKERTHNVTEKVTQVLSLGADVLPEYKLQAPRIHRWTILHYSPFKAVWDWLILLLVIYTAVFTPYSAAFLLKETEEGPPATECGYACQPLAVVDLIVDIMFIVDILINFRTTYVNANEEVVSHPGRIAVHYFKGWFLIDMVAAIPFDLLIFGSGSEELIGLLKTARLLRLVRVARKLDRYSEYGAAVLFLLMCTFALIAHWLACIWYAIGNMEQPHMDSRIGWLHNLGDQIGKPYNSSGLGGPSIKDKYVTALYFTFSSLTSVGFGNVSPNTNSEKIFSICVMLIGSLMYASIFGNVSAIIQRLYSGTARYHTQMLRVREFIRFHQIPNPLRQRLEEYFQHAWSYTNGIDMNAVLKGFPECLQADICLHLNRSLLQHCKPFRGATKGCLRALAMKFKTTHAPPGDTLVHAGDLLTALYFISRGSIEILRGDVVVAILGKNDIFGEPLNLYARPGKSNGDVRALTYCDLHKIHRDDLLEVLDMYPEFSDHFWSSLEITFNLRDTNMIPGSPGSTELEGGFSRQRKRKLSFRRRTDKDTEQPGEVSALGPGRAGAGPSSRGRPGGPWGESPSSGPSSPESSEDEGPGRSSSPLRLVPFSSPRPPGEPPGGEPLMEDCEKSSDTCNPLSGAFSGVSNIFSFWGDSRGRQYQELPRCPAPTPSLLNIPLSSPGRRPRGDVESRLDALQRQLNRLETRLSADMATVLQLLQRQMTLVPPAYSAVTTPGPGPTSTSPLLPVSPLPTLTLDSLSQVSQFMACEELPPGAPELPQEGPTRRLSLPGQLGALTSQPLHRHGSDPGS

N#Cc1ccc2[nH]cc(C(=O)NCCN3CCN(c4ccc5ccccc5n4)CC3)c2c1 [Compound 29, 5-Cyano-N-(2-(4-(quinolin-2-yl)piperazin-1-yl)ethyl)-1H-indole-3-carboxamide]
nH (Hill coefficient) (Adrenergic α2A; Adrenergic α2A): 1.02 | Ki (Adrenergic α2A; Adrenergic α2A, Cheng and Prusoff): 4.11 µM | IC50 (Adrenergic α2A; Adrenergic α2A, human recombinant CHO-Ki cells): 8.22 µM | times the activity of reference compound yohimbine (Adrenergic α2A; ratio of Ki values): 0.25 | number of targets with more than 50% inhibition [1]: 16 | IC50 (hERG): ~10 µM
